US20020165149A1, “Mutated class II major histocompatibility proteins” (priority 2000, published 2002)
Like-named read-outs stand apart in the source and are kept apart here. No end group written: not given here. *: point of attachment. Biotin = O=C1N[C@H]2[C@H](CS[C@H]2CCCCC(=O)*)N1

Experiments:
I-A^g7-negative L-cells = conditions: peptide 1.6 μM-50 μM, 3 hours at 37° C., pH 6
Procedure: FIG. 13 is a binding curve showing I-A^g7-positive L-cell binding to titrated amounts of B-1040-63 peptide (1.6 μM-50 μM).

I-A^g7 = test: Direct binding of biotinylated peptide to L-cells transfected with I-A^g7 (flow cytometry); set-up: species or system murine; conditions: 3 hours at 37° C., pH 6; streptavidin-PE detection
I-A^g7, sequence (as listed by the source): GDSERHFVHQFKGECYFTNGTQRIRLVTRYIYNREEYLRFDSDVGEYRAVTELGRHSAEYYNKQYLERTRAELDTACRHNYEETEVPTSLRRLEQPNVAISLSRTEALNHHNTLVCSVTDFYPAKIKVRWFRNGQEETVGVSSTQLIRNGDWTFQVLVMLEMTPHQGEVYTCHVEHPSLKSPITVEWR
I-A^g7, sequence (P04228 24-256): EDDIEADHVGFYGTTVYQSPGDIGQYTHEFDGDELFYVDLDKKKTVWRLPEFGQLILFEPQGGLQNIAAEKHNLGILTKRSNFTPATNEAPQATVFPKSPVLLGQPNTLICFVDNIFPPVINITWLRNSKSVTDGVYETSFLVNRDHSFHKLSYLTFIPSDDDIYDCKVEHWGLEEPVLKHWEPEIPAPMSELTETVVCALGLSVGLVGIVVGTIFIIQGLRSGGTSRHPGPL

Biotin-RTRPLWVRME [Mut B-1040-63]
binding to untransfected (I-A^g7-negative) L cells (I-A^g7-negative L-cells): does not bind
binding to untransfected (I-A^g7-negative) L cells (I-A^g7-negative L-cells; listed as B-104-63): does not occur
binding to L cells transfected with IA^g7 (I-A^g7): bind specifically
